Patent publication US20050148069A1, “IGF-1 instructs multipotent adult CNS neural stem cells to an oligodendroglial lineage” (priority 2003, published 2005)

System: adult hippocampus-derived neural progenitor cells
Assay: in vitro differentiation analysis of neural progenitor cells (immunocytochemistry for lineage markers)
Assay type: cell-based, rat
Details: for differentiation of neural progenitor cells into oligodendrocytes: 500 ng/ml; for differentiation of neural progenitor cells into oligodendrocytes / GFAP+ astrocytes: 4 days; for rank order of potency for oligodendrocyte differentiation: different concentrations (20-1000 ng/ml); for GFAP+ astrocytes: each at 500 ng/ml
Protocol: The neural progenitor cells isolated from the hippocampus of female Fischer 344 used in this study have been characterized previously (Gage et al., 1995; Palmer et al., 1997). The whole brain-derived neural stem cells from PIO ICR mice were isolated and cultured according to the methods as described, with slight modifications. Cells were cultured as previously described (Gage et al., 1995; Ray et al., 1993). Cells between passages 10 and 20 were used for in vitro differentiation analyses. To induce differentiation, cells were plated into 4-well chamber slides at a density of 55,000-75,000 cells per well and were allowed to proliferate in N2-supplemented (Invitrogen) DMEM:F12 (Omega Scientific) medium containing 20 ng/ml FGF-2 (PeproTech, Inc.) for 24 hours. FGF-2 was then withdrawn and cells were subsequently treated with differentiation media. […] For IGF-induction experiments, cells were trypsinized, washed with 1× PBS, and plated into insulin-free N2 medium. […] In some cultures, BrdU (2.5 μM, Sigma) was added to label dividing cells, and Q-VD-OPh (2 μM, Enzyme Systems Products) was added to prevent apoptosis.
Cells were fixed with 4% paraformaldehyde, followed by immunocytochemical staining as described (Palmer et al., 1999). Labeled cells were visualized using a Nikon E800 upright microscope or a Nikon E600 inverted microscope (Nikon Inc.) and a Spot RT CCD camera (Diagnostic Instruments Inc.). 4′,6-diamidino-2-phenylindole (DAPI) was used to identify individual cells. Quantification of cell phenotypes was with StereoInvestigator (MicroBrightfield Inc.); for each marker, 500-1000 cells were sampled systematically from standardized fields at 40×magnification. For quantification of live/dead cells, images were taken of cultures live-stained with propidum iodide (1 μg/ml; Molecular Probes) and Hoescht 33342 (1 μg/ml; Sigma) at 10×magnification, and cells were counted using Image-Pro (Media Cybernetics). The following primary antibodies were used: rabbit anti-Tuj1 (1:7500;Covance), mouse anti-RIP (1:25-1:75; Hybridoma Bank); guinea pig anti-GFAP (1:500-1:2500; Advanced Immunochemical, Inc.); rabbit anti-MBP (1:500; Chemicon International Inc.), rat anti-BrdU (1:400; Accurate). Secondary antibodies were all from Jackson ImmunoResearch and used at 1:250 dilution. The detection of BrdU in cultured cells required treatment in 2 N HCL at 37° C. for 30 min (Palmer et al., 1999). All experiments were independently replicated at least 3 times.

Compound | differentiation of neural progenitor cells into oligodendrocytes | rank order of potency for oligodendrocyte differentiation | GFAP+ astrocytes | effects on proliferation or differentiation (2 μM Q-VD-OPh, 2-day cultures) | cell survival (DAPI-stained nuclei, persistence of cells) (2 μM Q-VD-OPh, 2-day cultures, insulin-free N2 medium) | RIP+ differentiation (2 μM Q-VD-OPh, no IGF-I, 2-day cultures, insulin-free N2 medium)
insulin: insulin (Sigma) | could also promote the preferential differentiation of neural progenitor cells into oligodendrocytes | IGF-I>IGF-II>insulin | few to no GFAP+ astrocytes | – | – | –
CC(C)[C@H](NC(=O)c1ccc2ccccc2n1)C(=O)N[C@@H](CC(=O)O)C(=O)COc1c(F)cccc1F [Q-VD-OPh, reference compound] | – | – | – | without obvious effects on proliferation or differentiation | promoted the majority of the cells to survive | approximately 2%
IGF-II: human recombinant IGF-II (R&D Systems) | could also promote the preferential differentiation of neural progenitor cells into oligodendrocytes | IGF-I>IGF-II>insulin | few to no GFAP+ astrocytes | – | – | –
